What all share (type): biochemical
Test [1] has as its target PKC theta kinase (Homo sapiens, UniProt Q04759). Kind of test: PKC theta kinase inhibition, coupled-enzyme (NADH absorbance) assay, Ki. Particulars: 240 μM ATP, 18 nM PKC theta kinase, 30° C. On the procedure:
An assay buffer solution was prepared which consisted of 100 mM HEPES (pH 7.5), 10 mM MgCl2, 25 mM NaCl, 0.1 mM EDTA and 0.01% Brij. […] To 60 μL of this enzyme buffer, in a 384 well plate, was added 2 μL of VRT stock solution in DMSO. The mixture was allowed to equilibrate for 10 mins at 30° C. […] Ki values were calculated from initial rate data by non-linear regression using the Prism software package (Prism 4.0a, Graphpad Software, San Diego, Calif.).

The target in test [2] is PKC delta kinase (Homo sapiens, UniProt Q05655). The experiment in a line: PKC delta kinase inhibition, coupled-enzyme (NADH absorbance) assay, Ki. The note with it: 150 μM ATP, 46 nM PKC delta kinase, 30° C.; read-out: Ki PKC delta. On the procedure:
(§1) An assay buffer solution was prepared which consisted of 100 mM HEPES (pH 7.5), 10 mM MgCl2, 25 mM NaCl, 0.1 mM EDTA and 0.01% Brij. […] To 16 μL of this enzyme buffer, in a 384 well plate, was added 1 μL of VRT stock solution in DMSO. The mixture was allowed to equilibrate for 10 mins at 30° C. The enzyme reaction was initiated by the addition of 16 μL stock ATP solution prepared in assay buffer to a final assay concentration of 150 μM. Initial rate data was determined from the rate of change of absorbance at 340 nm (corresponding to stoichiometric consumption of NADH) using a Molecular Devices Spectramax plate reader (Sunnyvale, Calif.) over 15 mins at 30° C. […] Ki values were calculated from initial rate data by non-linear regression using the Prism software package (Prism 4.0a, Graphpad Software, San Diego, Calif.).

The target in test [3] is PKC alpha kinase (Homo sapiens, UniProt P17252). Kind of test: PKC alpha kinase inhibition, coupled-enzyme (NADH absorbance) assay, Ki. The note with it: 130 μM ATP, 4.5 nM PKC alpha kinase, 30° C. On the procedure: as §1, with “EDTA, 100 μM CaCl2” for “EDTA”, “130” for “150”

Molecules are shown by their SMILES.

Chain of PKC theta kinase (Q04759 whole entry): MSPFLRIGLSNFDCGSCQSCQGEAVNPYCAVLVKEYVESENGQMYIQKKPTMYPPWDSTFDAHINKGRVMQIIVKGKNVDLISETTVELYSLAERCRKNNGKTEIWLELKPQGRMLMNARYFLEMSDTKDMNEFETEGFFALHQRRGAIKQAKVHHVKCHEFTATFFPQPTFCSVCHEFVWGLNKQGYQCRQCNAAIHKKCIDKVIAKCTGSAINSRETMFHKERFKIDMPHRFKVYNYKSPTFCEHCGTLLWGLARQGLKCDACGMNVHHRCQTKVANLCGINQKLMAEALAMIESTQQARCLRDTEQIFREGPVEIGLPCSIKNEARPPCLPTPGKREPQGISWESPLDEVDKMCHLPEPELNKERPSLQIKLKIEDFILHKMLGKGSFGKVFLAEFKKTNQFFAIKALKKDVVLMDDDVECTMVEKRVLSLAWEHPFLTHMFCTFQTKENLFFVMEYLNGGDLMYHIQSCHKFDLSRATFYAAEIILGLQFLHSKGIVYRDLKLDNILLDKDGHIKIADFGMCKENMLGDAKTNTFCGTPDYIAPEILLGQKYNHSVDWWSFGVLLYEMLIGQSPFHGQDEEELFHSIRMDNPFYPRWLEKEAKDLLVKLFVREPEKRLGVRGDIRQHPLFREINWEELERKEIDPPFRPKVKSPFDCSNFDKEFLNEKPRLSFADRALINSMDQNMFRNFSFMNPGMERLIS
Chain of PKC delta kinase (Q05655 whole entry): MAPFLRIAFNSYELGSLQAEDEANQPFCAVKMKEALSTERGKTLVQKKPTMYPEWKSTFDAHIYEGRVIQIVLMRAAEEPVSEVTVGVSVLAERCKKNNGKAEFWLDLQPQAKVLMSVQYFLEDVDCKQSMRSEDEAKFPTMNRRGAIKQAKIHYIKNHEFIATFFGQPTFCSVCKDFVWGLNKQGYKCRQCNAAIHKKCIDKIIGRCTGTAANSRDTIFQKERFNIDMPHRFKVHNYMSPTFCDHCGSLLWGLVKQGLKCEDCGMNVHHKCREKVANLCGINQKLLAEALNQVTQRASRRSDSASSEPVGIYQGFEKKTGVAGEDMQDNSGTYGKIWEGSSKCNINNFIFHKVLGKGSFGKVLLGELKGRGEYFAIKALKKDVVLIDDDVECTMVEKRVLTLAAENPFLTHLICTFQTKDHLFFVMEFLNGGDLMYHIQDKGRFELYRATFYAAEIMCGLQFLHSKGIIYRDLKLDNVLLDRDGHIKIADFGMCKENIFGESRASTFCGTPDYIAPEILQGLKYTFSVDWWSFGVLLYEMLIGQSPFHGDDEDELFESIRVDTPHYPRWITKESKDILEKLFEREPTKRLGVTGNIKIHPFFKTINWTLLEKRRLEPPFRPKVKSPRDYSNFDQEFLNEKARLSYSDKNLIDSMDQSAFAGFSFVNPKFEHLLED

As for `Fc1ccc(N2CC3CCNCC3C2)nc1-c1n[nH]c2ncccc12` (stereo not drawn) [Compound 309], the figures for the Ki in test [1], in test [2] and in test [3] were less than 2.8 µM, greater than 1.25 µM and greater than 1.25 µM, respectively.

In the case of `CC(C)CC1(CN)CN(c2ccc(C(F)(F)F)c(-c3n[nH]c4ncccc34)n2)CCO1` (stereo not drawn) [Compound 397], the Ki in test [1] was less than 0.5 µM; in test [2], less than 0.5 µM; in test [3], less than 2.8 µM.

As to `NC(c1ccccc1)C1CCCN(c2ccc(F)c(-c3n[nH]c4ncccc34)n2)C1` (stereo not drawn) [Compound 301], the Ki in test [1] was less than 0.5 µM; in test [2], greater than 1.25 µM; in test [3] it was greater than 1.25 µM.

With `CC(C)C[C@H]1CN(c2cc(CO)cc(-c3n[nH]c4ncccc34)n2)CCN1` [Compound 451], the Ki in test [1] was less than 0.05 µM; in test [2], less than 0.5 µM; in test [3] it was less than 2.8 µM.

On to `CC(C)CC1CN(c2ccc(F)c(-c3n[nH]c4ncccc34)n2)CCC1C#N` (stereo not drawn) [Compound 370], for which the results for the Ki in test [1], in test [2] and in test [3] were less than 0.05 µM, less than 2.8 µM and greater than 1.25 µM, respectively.

Turning to `CC1(C)CC1(O)C1CN(c2ccc(F)c(-c3n[nH]c4ncccc34)n2)CCN1` (stereo not drawn) [Compound 380], the Ki in test [1] is less than 0.05 µM; in test [2] it was greater than 1.25 µM; in test [3] it was greater than 1.25 µM.

Take `CC(C)CC1(O)CCCN(c2ccc(F)c(-c3n[nH]c4ncccc34)n2)C1` (stereo not drawn) [Compound 295]: the Ki in test [1] was less than 2.8 µM; in test [2], greater than 1.25 µM; in test [3], greater than 1.25 µM.

Consider `CC(C)C(O)[C@@H]1CCCN(c2ccc(F)c(-c3n[nH]c4ncccc34)n2)C1` (stereo partly drawn) [Compound 278], for which the Ki in test [1] was less than 0.5 µM; in test [2] it was greater than 1.25 µM; in test [3], greater than 1.25 µM.

Consider `CC(C)(O)CC1CN(c2cccc(-c3n[nH]c4ncccc34)n2)CCN1` (stereo not drawn) [Compound 36], for which the figures for the Ki in test [1], in test [2] and in test [3] were less than 0.05 µM, less than 0.5 µM and less than 2.8 µM, respectively.

On to `CC(C)C[C@H]1CN(c2ccc(C(F)(F)F)c(-c3n[nH]c4ncccc34)n2)CC[C@@H]1O` [Compound 90], for which the Ki in test [1] was greater than 0.7 µM; in test [2], greater than 2 µM; in test [3], greater than 1.25 µM.

Turning to `CC(C)CC1(C)CN(c2ccc(F)c(-c3n[nH]c4ncccc34)n2)CCC1N` (stereo not drawn) [Compound 385], the Ki was less than 0.05 µM in test [1], less than 0.5 µM in test [2] and less than 0.5 µM in test [3].

In the case of `NC[C@@H]1CCN(c2ccc(F)c(-c3n[nH]c4ncccc34)n2)C1` [Compound 357], the Ki in test [1] is less than 0.5 µM; in test [2], greater than 1.25 µM; in test [3], greater than 1.25 µM.

For `CCC[C@H]1CN(c2ccc(F)c(-c3n[nH]c4ncccc34)n2)C[C@@H]1N` [Compound 339], the Ki in test [1] is less than 0.5 µM; in test [2], greater than 1.25 µM; in test [3], greater than 1.25 µM.

As to `CC(C)(N)C1CCN(c2ccc(F)c(-c3n[nH]c4ncccc34)n2)C1` (stereo not drawn) [Compound 360], the Ki in test [1] was less than 0.5 µM; in test [2] it was less than 2.8 µM; in test [3], greater than 1.25 µM.

Consider `CO[C@H]1CN(c2ccc(F)c(-c3n[nH]c4ncccc34)n2)CC[C@H]1N` [Compound 389], for which the Ki in test [1] is less than 0.5 µM; in test [2], less than 2.8 µM; in test [3] it was less than 2.8 µM.

With `CC(C)CC1(C)C=CCN(c2ccc(C(F)(F)F)c(-c3n[nH]c4ncccc34)n2)C1` (stereo not drawn) [Compound 396], the Ki is greater than 0.7 µM in test [1], greater than 1.25 µM in test [2] and greater than 1.25 µM in test [3].

Regarding `CC(C)C[C@@H]1C[C@@H](N)CN(c2ccc(C(F)(F)F)c(-c3n[nH]c4ncccc34)n2)C1` [Compound 365], the Ki is less than 0.5 µM in test [1], greater than 1.25 µM in test [2] and greater than 1.25 µM in test [3].

`CCC(C)(O)C1CN(c2ccc(F)c(-c3n[nH]c4ncccc34)n2)CCN1` (stereo not drawn) [Compound 161]: the values for the Ki in test [1], in test [2] and in test [3] were less than 0.05 µM, less than 0.5 µM and greater than 1.25 µM, respectively.

For the compound `CC[C@@H]1CN(c2cccc(-c3n[nH]c4ncccc34)n2)C[C@H](CC(C)C)N1` [Compound 13], the Ki in test [1] is less than 0.05 µM; in test [2] it was less than 0.5 µM; in test [3] it was less than 2.8 µM.

Source of the values: US9193722B2, “Tri-cyclic pyrazolopyridine kinase inhibitors” (Vertex Pharmaceuticals Incorporated, priority 2008, dated 2015).
